In patent US20190194279A1, “Wound Healing Peptide” (James Cook University, priority 2016, published 2019):
Entries after “also recorded” stand apart in the source; their conditions may differ. Where no end group is shown, it is not given here.

Columns and labels:
[1] = system: skin-deep wound on the crown of the head; format: in vivo, BALB/c mice; settings: mouse; for day 4 wound healing relative to controls, result in words (Example 3): 56 pmoles topical daily days 0-4, relative to peptide control
Method: These studies were conducted with the approval of the James Cook University Small Animal Ethics Committee, applications A1806 and A2204, as described^6. Briefly, 4-5 female BALB/c mice per group were anesthetized (intraperitoneal xylazine 16 mg/kg; ketamine 80 mg/kg), after which a skin-deep wound on the crown of the head was inflicted using a 5 mm biopsy punch (Zivic instruments). […] Wounds were photographed daily and after blinding treatment groups the area of the lesion was measured with ImageJ software and plotted as percent of wound closure from original wound images. […] Each mouse wounding study was conducted at least twice to provide reproducibility.
Day 4 wound healing were assessed using peptides as described herein (Ov-GRN-1, Ov-GRN1-35, Ov-GRN8-38, Ov-GRN12-34, Ov-GRN12-35_3s, GRN24-3ala, GRN24-P2A, GRN24-P4A, and GRN27sps).

H69 human cholangiocytes = test: Cell proliferation monitoring in real time using xCELLigence (Example 1, day 4); format: cell-based; settings: for increase in cell proliferation over peptide controls: at 400 nM; for cell proliferation, result in words: concentrations tested 10 nM-2 μM
Source text: Mammalian Cell Culture The non-malignant cholangiocyte cell line H69 is a SV40-transformed human bile duct epithelial cell line derived from human liver, kindly provided by Dr. Gregory J. Gores, Mayo Clinic, Rochester, Minn. H69 cells^23, 29, 30 were maintained in T75 cm^2 vented flasks (Corning) as monolayers as described^31 with minor modifications. Cells were maintained with regular splitting using 0.25% trypsin (Life Technologies) every 2-5 days in complete media [RPMI (Sigma) with growth factor-supplemented specialist complete media^30 [DMEM/F12 with high glucose, 10% FCS, 1×antibiotic/antimycotic, 25 μg/ml adenine, 5 μg/ml insulin, 1 μg/ml epinephrine, 8.3 μg/ml holo-transferrin, 0.62 μg/ml, hydrocortisone, 13.6 ng/ml T3 and 10 ng/ml EGF—Life Technologies]. Low nutrient media for cell proliferation assays was 5% complete media, i.e. 0.5% FCS and 1/20th of the growth factor concentrations listed above for complete media. The identities (human-derived) of the cell line were confirmed with […] (STR) analysis in January 2015 (15/15 positive loci across 2 alleles) and mycoplasma free at the DNA Diagnostics Centre (DDC)-medical (U.S.A.), accredited/certified by CAP, ISO/IEC 17025:2005 through ACLASS.
Cell proliferation monitoring in real time using xCELLigence Cells were seeded at 1,500 cells/well in 180 μl complete media (above) in E-plates (ACEA Biosciences) and grown overnight while monitored with an xCELLigence SP system (ACEA Biosciences) which monitors cellular events in real time by measuring electrical impedance across interdigitated gold micro-electrodes integrated into the base of tissue culture plates^32. Cells were washed three times with PBS prior to addition of 180 μl of low nutrient media (above) and incubated for a minimum of 6 h before further treatment. Treatments were prepared at 10× concentration and added to each well in a total volume of 20 μl. The xCELLigence system recorded cell indexes at intervals of one hour for 5-6 days following treatment. Readings for the cell index were normalized prior to treatment and cell proliferation ratios were determined from biological quadruplicates and represent the relative numbers of cells compared to control cells at day 4. Comparisons of induction of cell proliferation in response to treatments were accomplished using two-way ANOVA test with Dunnett's multiple comparison correction, using GraphPad Prism 6.02.

H69 cells = test: Cell proliferation monitoring in real time using xCELLigence (Example 2, 200 nM, 48 h); format: cell-based, human; settings: 200 nM peptide
Method: H69 cell line, non-malignant cholangiocyte cell line was obtained from Dr. Gregory J. Gores, Mayo Clinic, Rochester, Minn.^34. H69 cells were grown and maintained as previously described^34 in DMEM/F12 (Life Technologies) containing 1× antibiotic/antimycotic and 15 mM HEPES, supplemented with 10% fetal bovine serum (FBS) (Gibco, Scotland) at 37 C and 5% incubator. Cell proliferation assays were performed with modified DMEM/F12 media supplemented with 0.5% FBS and particular hormone and growth factors in a certain concentration range as listed in the previous study^34.
Proliferation study in real time was performed using xCELLigence SP system (ACEA Biosciences) as described previously^34. H69 cells were plated into a 96-well xCELLigence E-plate (ACEA Biosciences) at a density of 2000 cells/well; then placed in the xCELLigence system positioned in a 5% CO2 incubator at 37° C. and monitored overnight^47. Then, the complete media was replaced with 180 μl of starvation media (modified DMEM/F12 media supplemented with […] as described previously^34) and incubated for at least 6 hour. Treatments were added to each well in a total volume of 20 μl to provide 200 nM final concentrations. […] Cell proliferation rate was calculated as the relative numbers of treated cells compared to control cells over time (48 hours in culture). […] Each treatment was measured in quadruplicate.

Ov-GRN8-38: truncated Ov-GRN-1 peptide, residues 8-38, two disulfide bonds (RSPSCPDPVYTCRPGQTCARGLHGYGCAPMD; disulfide (positions not given here))
day 4 wound healing relative to controls, result in words (Example 3) [1]: significant increases in wound healing

CPDPVYTCRPGQTCCRGLHGYGCC [Ov-GRN12-35_3s]
wound healing activity in vivo compared with the other Ov-GRN-1 peptides, in words [1]: no more active in vivo than the other Ov-GRN-1 peptides | day 4 wound healing relative to controls, result in words (Example 3) [1]: significant increases in wound healing | increase in cell proliferation over peptide controls (H69 human cholangiocytes): 26% | cell proliferation, result in words (H69 human cholangiocytes): most potent peptide in the cell proliferation assay | increase in cell growth compared to control peptide (H69 human cholangiocytes; final concentration of 2 (unit not given), day 4): 41% | final concentrations with significantly increased cell proliferation (p<0.05) (H69 human cholangiocytes; four days after single application): > 15 nM

CPDAVYTCRPGQTCCRGLHGYGCC [P4A]
proliferation rate relative to the control peptide (H69 cells): 141.6%

CPDPVYTCRAGQTCCRGLHGYGCC [P10A]
proliferation rate relative to the control peptide (H69 cells): 131.4%

Ov-GRN1-35: truncated Ov-GRN-1 peptide, residues 1-35, four cysteines, two disulfide bonds, Cys IV and Cys VI replaced with alanine (MDTLQPIRSPSCPDPVYTCRPGQTCARGLHGYGCA; disulfide (positions not given here))
day 4 wound healing relative to controls, result in words (Example 3) [1]: significant increases in wound healing | increase in cell proliferation over peptide controls (H69 human cholangiocytes): 9%

CADAVYTCRAGQTCCRGLHGYGCC [GRN3Ala]
effect on cell proliferation compared to the control peptide, result in words (H69 cells): did not have statistically significant effect | effect on cell proliferation compared to the control peptide, result in words (H69 cells; listed as SEQ ID NO:9): did not enhance cell proliferation

Ov-GRN12-34: minimal Ov-GRN-1 sequence that contains the four cysteine residues, two disulfide bonds (CPDPVYTCRPGQTCARGLHGYGC; disulfide (positions not given here))
day 4 wound healing relative to controls, result in words (Example 3) [1]: significant increases in wound healing

carp granulin1-30: N-terminal 30 residues of carp granulin-1 with Cys IV and Cys VI replaced with alanine residues (VIHCDAATICPDGTTCALSPYGVWYCAPFS) [reference compound]
maximum proliferation over peptide controls (H69 human cholangiocytes; at 32 nM): 9% | cell proliferation, result in words (H69 human cholangiocytes): minimal cell proliferation (non-significant); also recorded: no substantial proliferation

CADPVYTCRPGQTCCRGLHGYGCC [GRN24P2A]
proliferation rate relative to the control peptide (H69 cells): 131.7%
